According to ChEMBL document CHEMBL1201862, “PubChem BioAssay data set” (2004):
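Where inhibition never reached the appropriate level, the endpoint shown equals the highest concentration tested. Otherwise, values were interpolated linearly from a five-concentration, 48-hour dose response in 96-well plates. The concentration for 50% growth inhibition is given as GI50.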 Calls of active or inactive are those of the source. Rule as the data show it: active = GI50 up to about 1.1 µM and inactive = higher.

Assays:
Assay in all cases: DTP human tumour cell line panel, 48 h
A498 = system: A498
ACHN = system: ACHN
BT-549 = system: BT-549
EKVX = system: EKVX
HOP-62 = system: HOP-62
HOP-92 = system: HOP-92
HT-29 = system: HT-29
IGROV-1 = system: IGROV-1
K562 = system: K562
OVCAR-3 = system: OVCAR-3
OVCAR-5 = system: OVCAR-5
PC-3 = system: PC-3
RPMI-8226 = system: RPMI-8226
SK-MEL-5 = system: SK-MEL-5
SW-620 = system: SW-620
T47D = system: T47D
UACC-62 = system: UACC-62
UO-31 = system: UO-31
RXF 393 = system: RXF 393

Measured: GI50

CC(C)C(/N=C/c1ccccc1O)C(=O)O (stereo not given)
inactive: A498 > 100 µM | ACHN > 100 µM | BT-549 > 100 µM | EKVX > 100 µM | HOP-62 > 100 µM | HOP-92 > 100 µM | HT-29 > 100 µM | IGROV-1 > 100 µM | K562 > 100 µM | OVCAR-3 > 100 µM | OVCAR-5 > 100 µM | PC-3 87.7 µM | RPMI-8226 > 100 µM | SK-MEL-5 > 100 µM | SW-620 > 100 µM | T47D > 100 µM | UACC-62 > 100 µM | UO-31 > 100 µM

Cc1ccc(C2SC(=N)Nc3c2c(C)nn3C(=O)c2ccc(Cl)cc2)cc1 (stereo not given)
inactive: ACHN > 10 µM | BT-549 > 10 µM | EKVX > 10 µM | HOP-62 > 10 µM | HOP-92 > 10 µM | HT-29 > 10 µM | IGROV-1 > 10 µM | K562 > 10 µM | OVCAR-3 > 10 µM | OVCAR-5 > 10 µM | PC-3 > 10 µM | RPMI-8226 > 10 µM | RXF 393 > 10 µM | SK-MEL-5 > 10 µM | SW-620 > 10 µM | T47D > 10 µM | UACC-62 > 10 µM

COc1cc2c(cc1OC)CN1CCCc3cc(OC)c(OC)cc3C1C2 (stereo not given)
inactive: ACHN 34.1 µM | BT-549 99.3 µM | EKVX 44 µM | HOP-62 25 µM | HOP-92 21.4 µM | HT-29 19.6 µM | IGROV-1 22 µM | K562 48.3 µM | OVCAR-3 39.3 µM | OVCAR-5 51.3 µM | PC-3 39.8 µM | RXF 393 29.6 µM | SK-MEL-5 36.1 µM | SW-620 30.5 µM | T47D 22.9 µM | UACC-62 29.6 µM | UO-31 43.1 µM

COC(=O)[C@H](C)[C@@H]1CC[C@](C)(CCC2=C(C)CCCC2(C)C)OO1
inactive: ACHN > 25 µM | BT-549 > 25 µM | EKVX > 25 µM | HOP-62 > 25 µM | HOP-92 > 25 µM | HT-29 > 25 µM | IGROV-1 > 25 µM | K562 14.3 µM | OVCAR-3 > 25 µM | OVCAR-5 > 25 µM | PC-3 > 25 µM | RPMI-8226 > 25 µM | RXF 393 > 25 µM | SK-MEL-5 > 25 µM | SW-620 > 25 µM | T47D > 25 µM | UACC-62 > 25 µM | UO-31 23.7 µM

O=c1cc(CO)n(CCc2c[nH]c3ccccc23)cc1O
inactive: ACHN 66.5 µM | BT-549 > 100 µM | EKVX > 100 µM | HOP-62 62.7 µM | HOP-92 30.6 µM | HT-29 34 µM | IGROV-1 86.5 µM | OVCAR-3 26.2 µM | OVCAR-5 81.5 µM | PC-3 > 100 µM | RPMI-8226 > 100 µM | SK-MEL-5 47.8 µM | SW-620 > 100 µM | T47D 24.5 µM | UACC-62 23.9 µM | UO-31 49.1 µM

CCOc1cc(C(c2c(O)c3ccccc3oc2=O)c2c(O)c3ccccc3oc2=O)ccc1OC
inactive: A498 19.6 µM | ACHN 18 µM | BT-549 20.7 µM | EKVX 21.3 µM | HOP-62 18.2 µM | HOP-92 16.5 µM | HT-29 24.2 µM | IGROV-1 17.7 µM | K562 33.4 µM | OVCAR-3 16.3 µM | OVCAR-5 19.6 µM | PC-3 17.3 µM | RPMI-8226 22.3 µM | SK-MEL-5 23.2 µM | SW-620 35.4 µM | T47D 16.1 µM | UACC-62 18.5 µM | UO-31 22.8 µM

N#Cc1c(N)n(-c2cccc(C(=O)O)c2)c(=O)c2cc([N+](=O)[O-])ccc12
inactive: A498 > 100 µM | ACHN > 100 µM | BT-549 > 100 µM | HOP-92 > 100 µM | HT-29 > 100 µM | K562 > 100 µM | PC-3 42 µM | RPMI-8226 > 100 µM | SK-MEL-5 > 100 µM | SW-620 > 100 µM | T47D > 100 µM | UACC-62 > 100 µM | UO-31 > 100 µM

CC(=O)OC/C=C(/CCl)CCC(Br)C(C)(C)Br.CC(=O)OC/C=C(\CCl)CCC(Br)C(C)(C)Br (stereo not given)
inactive: A498 > 10 µM | ACHN > 10 µM | BT-549 > 10 µM | EKVX > 10 µM | HOP-62 > 10 µM | HT-29 > 10 µM | IGROV-1 > 10 µM | K562 > 10 µM | OVCAR-3 > 10 µM | OVCAR-5 > 10 µM | PC-3 > 10 µM | RPMI-8226 > 10 µM | RXF 393 > 10 µM | SK-MEL-5 > 10 µM | SW-620 > 10 µM | T47D > 10 µM | UACC-62 > 10 µM | UO-31 > 10 µM

N#Cc1ccc(N2CCOCC2)cc1
inactive: A498 42.8 µM | ACHN > 100 µM | BT-549 24.9 µM | EKVX > 100 µM | HOP-62 > 100 µM | HOP-92 > 100 µM | HT-29 > 100 µM | IGROV-1 > 100 µM | OVCAR-3 > 100 µM | OVCAR-5 > 100 µM | PC-3 > 100 µM | RXF 393 > 100 µM | SK-MEL-5 > 100 µM | SW-620 > 100 µM | T47D > 100 µM | UACC-62 > 100 µM | UO-31 > 100 µM

FC1(F)SC2CCCCCCCCCCC2C1(F)F (stereo not given)
inactive: ACHN 25.3 µM | BT-549 44 µM | EKVX 35.5 µM | HOP-62 38.6 µM | HOP-92 19.1 µM | HT-29 29.7 µM | IGROV-1 76 µM | K562 15.3 µM | OVCAR-3 18.5 µM | OVCAR-5 47.5 µM | PC-3 42.6 µM | RPMI-8226 59.7 µM | RXF 393 20.7 µM | SK-MEL-5 32.9 µM | T47D 30.9 µM | UACC-62 33.9 µM | UO-31 78.2 µM

COC(=O)[C@@]12CN(C)[C@@H](C(C)(C)C)N1C(=O)OC2c1ccccc1 (stereo not given in full)
inactive: ACHN > 100 µM | BT-549 > 100 µM | EKVX > 100 µM | HOP-62 > 100 µM | HOP-92 > 100 µM | HT-29 > 100 µM | IGROV-1 > 100 µM | K562 > 100 µM | OVCAR-3 > 100 µM | OVCAR-5 > 100 µM | PC-3 > 100 µM | RPMI-8226 > 100 µM | RXF 393 > 100 µM | SK-MEL-5 > 100 µM | SW-620 > 100 µM | T47D > 100 µM | UACC-62 > 100 µM | UO-31 > 100 µM

CC1(C(=O)O)C[C@](C)(C(=O)OCc2ccccc2)C[C@](C)(C(=O)OCc2ccccc2)C1 (stereo not given in full)
inactive: ACHN 22.9 µM | BT-549 26.5 µM | EKVX 25.1 µM | HOP-62 30.5 µM | HOP-92 19.6 µM | HT-29 31.8 µM | IGROV-1 22.8 µM | K562 37 µM | OVCAR-3 26.4 µM | OVCAR-5 34.3 µM | PC-3 26.2 µM | RPMI-8226 26.2 µM | RXF 393 21.6 µM | SK-MEL-5 32.7 µM | SW-620 47 µM | T47D 35.2 µM | UACC-62 19 µM | UO-31 21.9 µM
